Assay results reported in patent US20260248799A1, “COMBINATIONS OF RETINALDEHYDE DEHYDROGENASE 1 (RALDH1) INHIBITORS AND IMMUNOSTIMULATORS AND METHODS USING SAME” (The Trustees of the University of Pennsylvania, priority 2023, published 2026).

Legend:
Monoamine Oxidase MAO-A = target: T1, Monoamine Oxidase MAO-A (Homo sapiens, UniProt P21397); assay: Safetyscreen: MAO-A; assay type: biochemical; settings: read-out: % Inh. Monoamine Oxidase MAO-A
T1 construct: Eurofins Cerep Panlabs (contract panel)

[1] = target: T2, Peptidase, Angiotensin Converting Enzyme (Oryctolagus cuniculus, UniProt P12822); assay: Safetyscreen: ACE; assay type: biochemical, rabbit; settings: read-out: % Inh. Peptidase, Angiotensin Converting Enzyme
T2 construct: Eurofins Cerep Panlabs (contract panel)

Phosphodiesterase PDE4 = assay: Safetyscreen: PDE4; assay type: biochemical, human; settings: 10 μM
Adrenergic α1A = target: T3, Adrenergic α1A (Rattus norvegicus, UniProt P43140); assay: Safetyscreen: Adrenergic α1A; assay type: binding; settings: read-out: % Inh. Adrenergic α1A
T3 construct: Eurofins Cerep Panlabs (contract panel)

Adrenergic α2A = target: T4, Adrenergic α2A (Homo sapiens, UniProt P08913); assay: Safetyscreen: Adrenergic α2A; assay type: binding; settings: read-out: % Inh. Adrenergic α2A
T4 construct: Eurofins Cerep Panlabs (contract panel)
T4 sequence (P08913 whole entry): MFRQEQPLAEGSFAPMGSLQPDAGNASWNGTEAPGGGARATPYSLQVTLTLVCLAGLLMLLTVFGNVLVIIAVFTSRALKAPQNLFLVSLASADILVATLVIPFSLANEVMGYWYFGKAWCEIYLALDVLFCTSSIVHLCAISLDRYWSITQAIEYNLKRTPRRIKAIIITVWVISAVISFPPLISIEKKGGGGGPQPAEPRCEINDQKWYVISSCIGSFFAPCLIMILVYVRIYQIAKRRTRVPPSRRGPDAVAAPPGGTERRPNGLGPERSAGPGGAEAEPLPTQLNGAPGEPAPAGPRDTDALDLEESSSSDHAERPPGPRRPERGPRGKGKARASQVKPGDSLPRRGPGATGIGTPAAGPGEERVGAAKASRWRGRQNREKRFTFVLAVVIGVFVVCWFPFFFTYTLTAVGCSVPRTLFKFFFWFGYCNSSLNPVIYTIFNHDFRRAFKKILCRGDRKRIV

Adrenergic β1 = target: T5, Adrenergic β1 (Homo sapiens, UniProt P08588); assay: Safetyscreen: Adrenergic β1; assay type: binding; settings: read-out: % Inh. Adrenergic β1
T5 construct: Eurofins Cerep Panlabs (contract panel)
T5 sequence (P08588 whole entry): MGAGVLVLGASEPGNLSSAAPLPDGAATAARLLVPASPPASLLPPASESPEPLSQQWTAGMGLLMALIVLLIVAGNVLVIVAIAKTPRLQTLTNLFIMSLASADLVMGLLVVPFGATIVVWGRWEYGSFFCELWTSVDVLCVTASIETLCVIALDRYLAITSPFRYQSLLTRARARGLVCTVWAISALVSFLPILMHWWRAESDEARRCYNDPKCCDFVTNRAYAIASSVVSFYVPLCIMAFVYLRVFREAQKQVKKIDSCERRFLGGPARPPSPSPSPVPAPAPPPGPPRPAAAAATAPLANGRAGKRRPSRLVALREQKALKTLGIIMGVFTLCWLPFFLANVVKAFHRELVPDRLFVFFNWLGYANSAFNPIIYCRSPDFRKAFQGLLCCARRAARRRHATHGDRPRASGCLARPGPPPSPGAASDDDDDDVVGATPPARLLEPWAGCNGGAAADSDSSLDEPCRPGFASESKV

Bradykinin B2 = target: T6, Bradykinin B2 (Homo sapiens, UniProt P30411); assay: Safetyscreen: Bradykinin B2; assay type: binding; settings: read-out: % Inh. Bradykinin B2
T6 construct: purchased Eurofins Cereps Panlabs
T6 sequence (P30411 whole entry): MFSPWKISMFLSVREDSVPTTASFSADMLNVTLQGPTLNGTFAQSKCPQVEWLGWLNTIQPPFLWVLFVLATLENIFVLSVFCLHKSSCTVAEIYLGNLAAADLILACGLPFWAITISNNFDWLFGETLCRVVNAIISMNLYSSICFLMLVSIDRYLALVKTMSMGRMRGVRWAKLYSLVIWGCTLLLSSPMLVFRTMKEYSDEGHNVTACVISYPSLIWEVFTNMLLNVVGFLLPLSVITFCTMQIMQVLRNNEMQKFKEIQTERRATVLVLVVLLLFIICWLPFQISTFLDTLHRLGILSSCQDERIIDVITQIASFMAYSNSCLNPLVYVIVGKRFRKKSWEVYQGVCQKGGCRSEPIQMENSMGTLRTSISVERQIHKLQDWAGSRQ

Calcium Channel N-Type = target: T7, Calcium Channel N-Type (Rattus norvegicus, UniProt Q02294); assay: Safetyscreen: Ca channel N-type; assay type: binding; settings: read-out: % Inh. Calcium Channel N-Type
T7 construct: purchased Eurofins Cereps Panlabs
T7 sequence (Q02294 whole entry): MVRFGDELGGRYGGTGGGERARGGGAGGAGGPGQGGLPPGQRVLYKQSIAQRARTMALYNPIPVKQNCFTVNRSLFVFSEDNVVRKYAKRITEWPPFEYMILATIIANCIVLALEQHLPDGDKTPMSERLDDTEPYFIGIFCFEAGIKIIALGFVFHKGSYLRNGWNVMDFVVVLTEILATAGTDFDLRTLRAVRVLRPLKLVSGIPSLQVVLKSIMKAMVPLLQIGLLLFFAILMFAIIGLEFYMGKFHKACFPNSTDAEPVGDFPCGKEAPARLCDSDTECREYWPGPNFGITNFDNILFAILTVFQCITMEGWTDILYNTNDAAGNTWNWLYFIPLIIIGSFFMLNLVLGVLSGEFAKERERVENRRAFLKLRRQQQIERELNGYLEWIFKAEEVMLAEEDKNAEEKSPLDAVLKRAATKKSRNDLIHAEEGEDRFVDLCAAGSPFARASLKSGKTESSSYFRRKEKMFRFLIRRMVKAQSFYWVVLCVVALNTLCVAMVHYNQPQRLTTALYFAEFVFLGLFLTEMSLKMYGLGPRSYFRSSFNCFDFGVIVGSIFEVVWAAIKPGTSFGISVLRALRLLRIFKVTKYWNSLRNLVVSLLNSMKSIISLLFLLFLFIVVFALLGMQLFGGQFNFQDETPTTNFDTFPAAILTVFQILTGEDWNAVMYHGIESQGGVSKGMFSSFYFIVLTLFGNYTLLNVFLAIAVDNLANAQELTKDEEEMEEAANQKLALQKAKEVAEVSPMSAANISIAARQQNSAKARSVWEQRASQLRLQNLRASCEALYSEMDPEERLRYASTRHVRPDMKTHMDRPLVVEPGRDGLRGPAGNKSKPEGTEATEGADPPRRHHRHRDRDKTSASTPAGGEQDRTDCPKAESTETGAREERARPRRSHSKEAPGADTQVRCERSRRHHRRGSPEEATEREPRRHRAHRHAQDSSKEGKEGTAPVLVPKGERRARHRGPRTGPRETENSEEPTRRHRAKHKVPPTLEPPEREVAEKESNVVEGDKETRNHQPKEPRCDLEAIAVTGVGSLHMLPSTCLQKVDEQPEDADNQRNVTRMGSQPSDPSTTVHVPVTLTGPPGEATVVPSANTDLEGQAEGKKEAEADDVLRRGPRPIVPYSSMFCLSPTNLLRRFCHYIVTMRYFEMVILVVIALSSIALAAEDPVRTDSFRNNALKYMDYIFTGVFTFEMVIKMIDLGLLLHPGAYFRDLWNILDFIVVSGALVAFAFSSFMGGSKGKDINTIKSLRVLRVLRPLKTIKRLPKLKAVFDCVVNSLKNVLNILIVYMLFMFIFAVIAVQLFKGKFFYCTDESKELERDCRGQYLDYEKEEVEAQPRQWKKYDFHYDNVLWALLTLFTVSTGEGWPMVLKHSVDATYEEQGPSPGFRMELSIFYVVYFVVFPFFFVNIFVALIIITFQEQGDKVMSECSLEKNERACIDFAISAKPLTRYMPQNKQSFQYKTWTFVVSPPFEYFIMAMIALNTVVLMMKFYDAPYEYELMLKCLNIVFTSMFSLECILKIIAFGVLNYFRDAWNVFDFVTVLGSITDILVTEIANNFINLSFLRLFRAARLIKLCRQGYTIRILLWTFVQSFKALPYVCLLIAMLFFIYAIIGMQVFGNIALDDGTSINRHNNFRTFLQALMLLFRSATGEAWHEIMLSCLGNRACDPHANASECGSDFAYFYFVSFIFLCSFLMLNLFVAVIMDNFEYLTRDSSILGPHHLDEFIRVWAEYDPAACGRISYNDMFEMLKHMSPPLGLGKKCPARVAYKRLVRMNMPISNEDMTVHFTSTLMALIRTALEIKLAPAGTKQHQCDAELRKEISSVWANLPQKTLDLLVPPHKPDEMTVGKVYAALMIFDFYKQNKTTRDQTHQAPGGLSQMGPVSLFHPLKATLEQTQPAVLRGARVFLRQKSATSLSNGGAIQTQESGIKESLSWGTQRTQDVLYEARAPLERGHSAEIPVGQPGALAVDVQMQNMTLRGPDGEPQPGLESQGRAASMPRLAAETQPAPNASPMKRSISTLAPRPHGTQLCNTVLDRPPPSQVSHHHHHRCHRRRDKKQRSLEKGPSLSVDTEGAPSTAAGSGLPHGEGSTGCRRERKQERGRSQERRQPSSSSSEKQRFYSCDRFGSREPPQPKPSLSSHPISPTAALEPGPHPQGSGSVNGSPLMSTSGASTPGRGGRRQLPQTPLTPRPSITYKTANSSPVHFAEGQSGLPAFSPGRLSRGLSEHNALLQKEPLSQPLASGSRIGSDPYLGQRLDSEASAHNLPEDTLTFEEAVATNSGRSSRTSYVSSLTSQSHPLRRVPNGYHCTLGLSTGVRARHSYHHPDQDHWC

GABABIA = target: T8, GABABIA (Homo sapiens, UniProt Q9UBS5); assay: Safetyscreen: GABABIA; assay type: binding; settings: read-out: % Inh. GABABIA
T8 construct: purchased Eurofins Cereps Panlabs

Glutamate, AMPA = assay: Safetyscreen: Glutamate, AMPA; assay type: binding, rat; settings: 10 μM
Glutamate, Kainate = assay: Safetyscreen: Glutamate, Kainate; assay type: binding, rat; settings: 10 μM
Glutamate, NMDA, Agonism = assay: Safetyscreen: NMDA, Agonism; assay type: binding, rat; settings: 10 μM
Histamine H1 = target: T9, Histamine H1 (Homo sapiens, UniProt P35367); assay: Safetyscreen: Histamine H1; assay type: binding; settings: read-out: % Inh. Histamine H1
T9 construct: purchased Eurofins Cereps Panlabs
T9 sequence (P35367 whole entry): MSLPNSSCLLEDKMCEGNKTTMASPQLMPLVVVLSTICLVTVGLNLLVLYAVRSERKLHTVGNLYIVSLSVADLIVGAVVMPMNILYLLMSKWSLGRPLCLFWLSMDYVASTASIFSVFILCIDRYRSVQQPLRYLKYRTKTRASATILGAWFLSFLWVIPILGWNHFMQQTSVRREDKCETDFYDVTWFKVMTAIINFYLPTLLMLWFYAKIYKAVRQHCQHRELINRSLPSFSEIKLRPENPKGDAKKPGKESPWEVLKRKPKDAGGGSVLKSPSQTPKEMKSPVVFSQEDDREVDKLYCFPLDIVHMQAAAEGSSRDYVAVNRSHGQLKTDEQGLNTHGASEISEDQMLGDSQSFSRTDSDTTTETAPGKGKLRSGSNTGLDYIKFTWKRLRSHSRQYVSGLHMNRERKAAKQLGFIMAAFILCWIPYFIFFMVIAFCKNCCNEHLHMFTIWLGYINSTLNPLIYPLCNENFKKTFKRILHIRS

Melanocortin MC1 = target: T10, Melanocortin MC1 (Homo sapiens, UniProt Q01726); assay: Safetyscreen: MC1; assay type: binding; settings: read-out: % Inh. Melanocortin MC1
T10 construct: purchased Eurofins Cereps Panlabs
T10 sequence (Q01726 whole entry): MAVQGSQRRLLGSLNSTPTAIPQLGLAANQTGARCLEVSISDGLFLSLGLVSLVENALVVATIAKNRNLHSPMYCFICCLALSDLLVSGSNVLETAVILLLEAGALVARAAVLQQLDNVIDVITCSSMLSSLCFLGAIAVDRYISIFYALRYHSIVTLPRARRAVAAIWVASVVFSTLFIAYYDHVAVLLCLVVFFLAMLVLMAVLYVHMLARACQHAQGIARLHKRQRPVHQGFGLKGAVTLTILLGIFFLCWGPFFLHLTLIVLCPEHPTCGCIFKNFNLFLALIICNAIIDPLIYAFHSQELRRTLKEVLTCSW

Muscarinic M1 = target: T11, Muscarinic M1 (Homo sapiens, UniProt P11229); assay: Safetyscreen: Muscarinic M1; assay type: binding; settings: read-out: % Inh. Muscarinic M1
T11 construct: Eurofins Cereps Panlabs (contract panel)

Neuropeptide Y Y1 = target: T12, Neuropeptide Y Y1 (Homo sapiens, UniProt P25929); assay: Safetyscreen: Neuropeptide Y Y1; assay type: binding; settings: read-out: % Inh. Neuropeptide Y Y1
T12 construct: Eurofins Cereps Panlabs (contract panel)

[2] = target: T13, Nicotinic Acetylcholine α1, Bungarotoxin (Homo sapiens, UniProt P02708+P07510+Q07001); assay: Safetyscreen: Nicotinic Acetylcholine α1; assay type: binding; settings: read-out: % Inh. Nicotinic Acetylcholine α1, Bungarotoxin
T13 construct: Eurofins Cereps Panlabs (contract panel)

Progesterone PR-B = target: T14, Progesterone PR-B (Homo sapiens, UniProt P06401); assay: Safetyscreen: Progesterone PR-B; assay type: binding; settings: read-out: % Inh. Progesterone PR-B
T14 construct: Eurofins Cereps Panlabs (contract panel)

[3] = target: T15, Serotonin (5-Hydroxytryptamine) 5-HT1A (Homo sapiens, UniProt P08908); assay: Safetyscreen: 5-HT1A; assay type: binding; settings: read-out: % Inh. Serotonin (5-Hydroxytryptamine) 5-HT1A
T15 construct: Eurofins Cereps Panlabs (contract panel)

[4] = target: T16, Serotonin (5-Hydroxytryptamine) 5-HT3 (Homo sapiens, UniProt P46098); assay: Safetyscreen: 5-HT3; assay type: binding; settings: read-out: % Inh. Serotonin (5-Hydroxytryptamine) 5-HT3
T16 construct: Eurofins Cereps Panlabs (contract panel)
T16 sequence (P46098 24-478): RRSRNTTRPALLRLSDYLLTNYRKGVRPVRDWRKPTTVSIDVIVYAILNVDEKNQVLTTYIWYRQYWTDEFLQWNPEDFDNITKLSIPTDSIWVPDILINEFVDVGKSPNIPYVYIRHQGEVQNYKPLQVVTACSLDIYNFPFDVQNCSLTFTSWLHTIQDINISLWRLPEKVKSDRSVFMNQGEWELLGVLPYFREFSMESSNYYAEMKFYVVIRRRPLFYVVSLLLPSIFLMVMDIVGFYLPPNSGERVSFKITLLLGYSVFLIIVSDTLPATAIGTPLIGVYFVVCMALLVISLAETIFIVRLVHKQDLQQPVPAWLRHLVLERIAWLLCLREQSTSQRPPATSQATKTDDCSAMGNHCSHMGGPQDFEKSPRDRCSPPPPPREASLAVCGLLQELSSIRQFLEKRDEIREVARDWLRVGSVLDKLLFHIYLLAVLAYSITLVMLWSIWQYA

Sodium Channel, Site 2 = assay: Safetyscreen: Sodium Channel, Site 2; assay type: binding, rat; settings: 10 μM
Transporter, Adenosine = assay: Safetyscreen: Adenosine transporter; assay type: binding, guinea pig; settings: 10 μM
[5] = target: T17, Transporter, Serotonin (5-Hydroxytryptamine) (SERT) (Homo sapiens, UniProt P31645); assay: Safetyscreen: SERT; assay type: binding; settings: read-out: % Inh. Transporter, Serotonin (5-Hydroxytryptamine) (SERT)
T17 construct: purchased Eurofins Cereps Panlabs

[6] = Toxicity observations with Raldh1-INH; settings: mouse, in vivo
Method: Male CD1 or C57BL/6J mice between 6 and 8 weeks old and weighing approximately 20 to 30 grams were dosed with compound 86, compound 91, and compound 99 at 2 mg/kg (IV), 10 mg/kg (PO), and 10 or 30 mg/kg (IP). The compounds were formulated using a 20% hydroxypropyl-beta-cyclodextrin (HPbCD) solution in saline, was made on the day of dosing or directly prior to dosing. Each treatment group consisted of three mice, and plasma was collected at 5 minutes, 15 minutes, 30 minutes, 1 hour, 2 hours, 4 hours, 8 hours, 12 hours, and 24 hours post-dose for IV administration and at 15 minutes, 30 minutes, 1 hour, 2 hours, 4 hours, 8 hours, 12 hours, and 24 hours post-dose for PO administration. Approximately 0.025 mL of blood was collected from the dorsal metatarsal vein at each time point. […] Plasma samples were then stored in polypropylene tubes, quickly frozen, and kept at −75° C. until analyzed by LC/MS/MS. The following pharmacokinetic parameters were measured: Terminal half-life (T½), Concentration at immediately after injection (C0), Maximum concentration (Cmax), Time to reach max concentration (Tmax), Clearance (CL), Volume of distribution (Vd), Area under the curve (AUClast), and bioavailability (% F). Animals were also monitored during the in-life phase by once daily cage side observations; any adverse clinical signs were noted as part of the PK report.

Question: Which results are given for `CS(=O)(=O)N1CCN(C(=O)c2cnc3ccc(F)cc3c2N2CCC(C#N)(c3ccccc3)CC2)CC1` [Compound C-86, 1-(6-fluoro-3-(4-(methylsulfonyl)piperazine-1-carbonyl)quinolin-4-yl)-4-phenylpiperidine-4-carbonitrile]?
Answer: inhibition at 10 µM (Monoamine Oxidase MAO-A): 2%; inhibition at 10 µM [1]: -6%; % Inh. Phosphodiesterase PDE4 (Phosphodiesterase PDE4): −7%; inhibition at 10 µM (Adrenergic α1A): 6%; inhibition at 10 µM (Adrenergic α2A): 0%; inhibition at 10 µM (Adrenergic β1): 3%; inhibition at 10 µM (Bradykinin B2): 2%; inhibition at 10 µM (Calcium Channel N-Type): 6%; inhibition at 10 µM (GABABIA): 7%; % Inh. Glutamate, AMPA (Glutamate, AMPA): 0%; % Inh. Glutamate, Kainate (Glutamate, Kainate): 11%; % Inh. Glutamate, NMDA, Agonism (Glutamate, NMDA, Agonism): 2%; inhibition at 10 µM (Histamine H1): 13%; inhibition at 10 µM (Melanocortin MC1): 8%; inhibition at 10 µM (Muscarinic M1): 3%; inhibition at 10 µM (Neuropeptide Y Y1): 11%; inhibition at 10 µM [2]: 2%; inhibition at 10 µM (Progesterone PR-B): 1%; inhibition at 10 µM [3]: 5%; inhibition at 10 µM [4]: 2%; % Inh. Sodium Channel, Site 2 (Sodium Channel, Site 2): 21%; % Inh. Transporter, Adenosine (Transporter, Adenosine): 56%; inhibition at 10 µM [5]: 17%; signs of toxicity [6]: no signs of toxicity have been observed
